Earlier results on 1 compound are cited in US20080167477A1, “NOVEL POLYMORPHIC FORMS OF […] AND PROCESS FOR PREPARING THE SAME” (MATRIX LABORATORIES LIMITED, priority 2007, published 2008).

The conditions of the data set: compared to the free base of carvedilol; disclosed in WO 2004/002419.

As to `COc1ccccc1OCCNCC(O)COc1cccc2[nH]c3ccccc3c12.O=P(O)(O)O` (stereo not shown) [carvedilol dihydrogen phosphate], the solubility entry is given as “higher solubility when compared to the free base of carvedilol”.
